Test results reported in PMC8566089 (Bioorganic Chemistry, 2021).
Where two headings read alike, the source gives them in different places.

Key:
[1] = test system: HCT116 (colon cancer cell line); experiment: PI-flow cytometry cell cycle analysis; type: cell-based; details: for phase of cell cycle arrest: PI-flow cytometry; for DNA content (%) G0-G1 / DNA content (%) G2/M / DNA content (%) Pre-G1 / DNA content (%) S: at MTT-IC50 of the agent
[2] = test system: HCT116 (colon) cancer cell line; experiment: MTT antiproliferative assay, HCT116; type: cell-based; details: for IC50: Homo sapiens, HCT-116, 72 h, read-out: IC50 ± SE, HCT116; for SI (selectivity index), HCT116: IC50 of RPE1 relative to that of HCT116
[3] = target: T1, EGFR (Homo sapiens, UniProt P00533); experiment: EGFR Western blot in HCT116; type: cell-based; details: for EGFR HCT116 % Inhibition: Western blot at MTT-IC50; for EGFR HCT116 RQ (relative quantification): Western blot at MTT-IC50, control RQ 4.0382
T1 sequence (P00533 25-1210): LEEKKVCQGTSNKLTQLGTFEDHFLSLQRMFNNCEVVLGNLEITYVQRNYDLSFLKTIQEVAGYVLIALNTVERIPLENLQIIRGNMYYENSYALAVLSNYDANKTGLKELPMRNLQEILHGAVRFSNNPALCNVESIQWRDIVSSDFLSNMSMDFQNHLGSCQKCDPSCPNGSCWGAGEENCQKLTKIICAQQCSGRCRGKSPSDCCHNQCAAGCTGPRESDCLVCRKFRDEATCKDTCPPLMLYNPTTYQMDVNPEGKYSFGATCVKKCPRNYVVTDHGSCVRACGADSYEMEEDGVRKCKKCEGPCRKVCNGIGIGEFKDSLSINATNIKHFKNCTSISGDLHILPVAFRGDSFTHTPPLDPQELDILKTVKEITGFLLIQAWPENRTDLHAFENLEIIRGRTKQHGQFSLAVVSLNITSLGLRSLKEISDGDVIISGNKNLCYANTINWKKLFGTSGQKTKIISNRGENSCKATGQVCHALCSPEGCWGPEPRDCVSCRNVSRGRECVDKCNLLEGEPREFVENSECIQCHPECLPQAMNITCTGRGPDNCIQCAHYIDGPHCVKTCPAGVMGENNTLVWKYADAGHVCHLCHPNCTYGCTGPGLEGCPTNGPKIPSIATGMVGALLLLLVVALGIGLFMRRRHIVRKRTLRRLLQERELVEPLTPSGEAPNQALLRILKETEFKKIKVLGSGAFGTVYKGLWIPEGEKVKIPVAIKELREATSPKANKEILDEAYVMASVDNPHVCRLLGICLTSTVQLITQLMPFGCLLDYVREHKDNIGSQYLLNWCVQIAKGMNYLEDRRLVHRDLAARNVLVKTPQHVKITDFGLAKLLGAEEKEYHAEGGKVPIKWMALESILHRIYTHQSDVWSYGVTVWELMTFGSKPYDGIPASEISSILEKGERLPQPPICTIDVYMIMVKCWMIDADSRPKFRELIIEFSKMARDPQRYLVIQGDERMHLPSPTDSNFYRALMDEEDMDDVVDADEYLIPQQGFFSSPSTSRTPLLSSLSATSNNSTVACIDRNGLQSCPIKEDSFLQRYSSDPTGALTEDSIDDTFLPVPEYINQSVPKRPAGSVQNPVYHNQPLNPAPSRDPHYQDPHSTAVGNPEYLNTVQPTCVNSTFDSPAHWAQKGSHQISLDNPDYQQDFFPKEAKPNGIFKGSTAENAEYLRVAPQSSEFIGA

[4] = test system: RPE1 (normal human immortalized retinal pigment epithelial cell line); experiment: MTT assay against normal RPE1 cells; type: cell-based; details: RPE-1, read-out: IC50 ± SE, RPE1
[5] = target: T2, COX-1 (Ovis aries, UniProt P05979); experiment: COX-1 inhibitor screening kit; type: biochemical
T2 sequence (P05979 25-600): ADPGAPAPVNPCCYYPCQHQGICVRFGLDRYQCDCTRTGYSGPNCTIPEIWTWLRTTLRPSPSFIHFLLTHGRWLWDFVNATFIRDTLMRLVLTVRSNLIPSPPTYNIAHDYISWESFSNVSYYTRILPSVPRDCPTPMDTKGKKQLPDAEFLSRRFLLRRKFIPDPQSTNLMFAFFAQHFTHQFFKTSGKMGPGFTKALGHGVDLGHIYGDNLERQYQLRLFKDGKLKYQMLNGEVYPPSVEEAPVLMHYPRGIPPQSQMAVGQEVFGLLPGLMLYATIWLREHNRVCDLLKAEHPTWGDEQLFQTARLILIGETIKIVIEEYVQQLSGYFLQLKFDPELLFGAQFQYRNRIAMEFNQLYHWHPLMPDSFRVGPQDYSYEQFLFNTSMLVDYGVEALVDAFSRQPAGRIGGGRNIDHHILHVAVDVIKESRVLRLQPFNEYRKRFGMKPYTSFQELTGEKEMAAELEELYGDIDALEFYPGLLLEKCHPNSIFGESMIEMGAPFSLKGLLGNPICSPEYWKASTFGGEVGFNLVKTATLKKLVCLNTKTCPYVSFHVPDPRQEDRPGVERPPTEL

[6] = test system: SARS-CoV-2 (hCoV-19/Egypt/NRC-03/2020); details: SARS-CoV-2 / VERO-E6
[7] = target: T3, COX-2 (Homo sapiens, UniProt P35354); experiment: COX-2 inhibitor screening kit; type: biochemical
T3 sequence (P35354 18-604): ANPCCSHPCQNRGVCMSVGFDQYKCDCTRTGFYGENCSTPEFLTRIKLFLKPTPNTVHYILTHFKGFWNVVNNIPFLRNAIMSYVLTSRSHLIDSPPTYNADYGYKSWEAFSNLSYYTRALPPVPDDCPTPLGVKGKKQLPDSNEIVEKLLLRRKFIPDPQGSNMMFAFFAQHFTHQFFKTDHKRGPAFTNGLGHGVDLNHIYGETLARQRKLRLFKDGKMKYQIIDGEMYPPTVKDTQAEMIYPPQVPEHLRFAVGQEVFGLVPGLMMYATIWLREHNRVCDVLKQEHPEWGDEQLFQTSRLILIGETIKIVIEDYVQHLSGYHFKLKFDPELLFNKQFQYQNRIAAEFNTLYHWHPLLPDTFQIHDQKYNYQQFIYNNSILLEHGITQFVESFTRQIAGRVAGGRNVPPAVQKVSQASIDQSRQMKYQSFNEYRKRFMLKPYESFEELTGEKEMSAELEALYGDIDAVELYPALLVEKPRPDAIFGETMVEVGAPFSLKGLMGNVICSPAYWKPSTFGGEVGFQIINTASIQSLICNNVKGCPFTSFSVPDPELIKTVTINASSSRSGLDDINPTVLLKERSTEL

[8] = test system: A431 (squamous skin) cancer cell line; experiment: MTT antiproliferative assay, A431; type: cell-based; details: for IC50: Homo sapiens, A-431, 72 h, read-out: IC50 ± SE, A431; for SI (selectivity index), A431: IC50 of RPE1 relative to that of A431
[9] = test system: HCT116 (colon cancer cell line); experiment: Annexin V-FITC apoptosis/necrosis study; type: cell-based; details: at MTT-IC50 of the agent
[10] = target: T4, VEGFR-2 (Homo sapiens, UniProt P35968); experiment: VEGFR-2 Western blot in HCT116; type: cell-based; details: for VEGFR2 HCT116 % Inhibition: Western blot at MTT-IC50; for VEGFR2 HCT116 RQ (relative quantification): Western blot at MTT-IC50, control RQ 3.817
T4 sequence (P35968 20-1356): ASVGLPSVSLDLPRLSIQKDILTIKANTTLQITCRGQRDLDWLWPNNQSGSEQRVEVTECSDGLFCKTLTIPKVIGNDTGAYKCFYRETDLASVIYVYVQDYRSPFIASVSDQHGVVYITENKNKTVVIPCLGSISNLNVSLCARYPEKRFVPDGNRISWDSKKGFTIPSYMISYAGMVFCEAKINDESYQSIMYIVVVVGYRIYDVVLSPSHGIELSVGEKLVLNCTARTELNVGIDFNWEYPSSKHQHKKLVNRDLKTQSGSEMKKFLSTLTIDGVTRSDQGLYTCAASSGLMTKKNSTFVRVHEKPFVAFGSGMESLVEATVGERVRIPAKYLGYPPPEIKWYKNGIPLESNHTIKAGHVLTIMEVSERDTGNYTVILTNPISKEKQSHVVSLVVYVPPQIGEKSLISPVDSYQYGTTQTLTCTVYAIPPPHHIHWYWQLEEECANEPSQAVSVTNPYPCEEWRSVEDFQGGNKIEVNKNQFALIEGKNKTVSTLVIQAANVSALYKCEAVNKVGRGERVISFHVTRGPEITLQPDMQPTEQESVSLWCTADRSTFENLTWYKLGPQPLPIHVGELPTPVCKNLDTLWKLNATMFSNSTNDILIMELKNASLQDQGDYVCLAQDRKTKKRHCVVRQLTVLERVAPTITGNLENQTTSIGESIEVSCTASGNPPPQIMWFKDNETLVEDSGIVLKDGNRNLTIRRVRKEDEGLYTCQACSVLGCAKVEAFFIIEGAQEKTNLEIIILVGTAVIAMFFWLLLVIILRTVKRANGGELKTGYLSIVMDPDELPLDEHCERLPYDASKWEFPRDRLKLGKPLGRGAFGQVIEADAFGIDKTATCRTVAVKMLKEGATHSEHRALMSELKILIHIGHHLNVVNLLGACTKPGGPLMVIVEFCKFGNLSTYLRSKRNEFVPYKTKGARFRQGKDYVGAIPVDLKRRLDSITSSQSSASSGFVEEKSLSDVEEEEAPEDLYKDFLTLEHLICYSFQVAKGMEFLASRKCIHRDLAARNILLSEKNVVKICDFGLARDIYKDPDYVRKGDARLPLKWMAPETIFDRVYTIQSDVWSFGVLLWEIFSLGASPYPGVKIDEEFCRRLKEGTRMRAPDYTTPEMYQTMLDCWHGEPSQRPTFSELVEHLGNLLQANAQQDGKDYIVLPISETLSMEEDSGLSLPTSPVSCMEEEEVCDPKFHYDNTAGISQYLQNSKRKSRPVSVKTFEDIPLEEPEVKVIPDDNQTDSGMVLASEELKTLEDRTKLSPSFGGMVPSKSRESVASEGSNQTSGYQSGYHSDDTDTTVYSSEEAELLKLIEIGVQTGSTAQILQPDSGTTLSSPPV

[11] = test system: MCF7 (breast) cancer cell line; experiment: MTT antiproliferative assay, MCF7; type: cell-based; details: for IC50: Homo sapiens, MCF7, 72 h, read-out: IC50 ± SE, MCF7; for SI (selectivity index), MCF7: IC50 of RPE1 relative to that of MCF7
[12] = target: T1, EGFR; experiment: EGFR Western blot in MCF7; type: cell-based; details: for EGFR MCF7 % Inhibition: Western blot at MTT-IC50; for EGFR MCF7 RQ (relative quantification): Western blot at MTT-IC50, control RQ 4.226
[13] = target: T4, VEGFR-2; experiment: VEGFR-2 Western blot in MCF7; type: cell-based; details: for VEGFR2 MCF7 % Inhibition: Western blot at MTT-IC50; for VEGFR2 MCF7 RQ (relative quantification): Western blot at MTT-IC50, control RQ 3.725
[14] = test system: MCF7 (breast) cancer cell line; details: read-out: IC50 ± SE, MCF7; cited from earlier work
[15] = test system: HCT116 (colon) cancer cell line; details: read-out: IC50 ± SE, HCT116; cited from earlier work

For `CC(=O)Oc1ccccc1C(=O)N1C/C(=C\c2ccc(Cl)cc2)C(=O)/C(=C/c2ccc(Cl)cc2)C1` [Compound 5c, 2-[3,5-Bis((E)-4-chlorobenzylidene)-4-oxopiperidine-1-carbonyl]phenyl acetate], the “phase of cell cycle arrest” value [1] was “G1-phase”, the “DNA content (%) G0-G1” value [1] was 55.28% and the “DNA content (%) G2/M” value [1] was 3.59%. For the same compound, the “DNA content (%) Pre-G1” value [1] was 44.28%, the “DNA content (%) S” value [1] was 41.13% and the IC50 [2] was 986 ± 80 nM. The “SI (selectivity index), HCT116” value [2] was 8.96, the “EGFR HCT116 % Inhibition” value [3] was 62.9% and the “EGFR HCT116 RQ (relative quantification)” value [3] was 1.5. For the same compound, the IC50 [4] was 8830 ± 680 nM, the IC50 [5] was 271 nM and the “SI = CC50/IC50” value [6] was 1.7. For the same compound, the IC50 [7] was 2240 nM, the “SI = IC50(COX-1)/IC50(COX-2)” value [7] was 0.121 and the IC50 [8] was 1210 ± 110 nM. The “SI (selectivity index), A431” value [8] was 7.3, the “Apoptosis (%) Early” value [9] was 2.29% and the “Apoptosis (%) Late” value [9] was 28.58%. For the same compound, the “Apoptosis (%) Total” value [9] was 44.28%, the “Necrosis (%)” value [9] was 13.41% and the “VEGFR2 HCT116 % Inhibition” value [10] was 73.3%. The “VEGFR2 HCT116 RQ (relative quantification)” value [10] was 1.02, the IC50 [11] was 2810 ± 260 nM and the “SI (selectivity index), MCF7” value [11] was 3.15. The “EGFR MCF7 % Inhibition” value [12] was 85.6%, the “EGFR MCF7 RQ (relative quantification)” value [12] was 0.61 and the “VEGFR2 MCF7 % Inhibition” value [13] was 59.5%. For the same compound, the “VEGFR2 MCF7 RQ (relative quantification)” value [13] was 1.51.

In the case of `COc1cc(/C=C2\CN(C(=O)c3cc(Cl)ccc3OC(C)=O)C/C(=C\c3cc(OC)c(OC)c(OC)c3)C2=O)cc(OC)c1OC` [Compound 5o, 4-Chloro-2-(4-oxo-3,5-bis((E)-3,4,5-trimethoxybenzylidene)piperidine-1-carbonyl)phenyl acetate], the “phase of cell cycle arrest” value [1] is reported as “S-phase”, the “DNA content (%) G0-G1” value [1] is reported as 42.75% and the “DNA content (%) G2/M” value [1] is reported as 4.14%. For the same compound, the “DNA content (%) Pre-G1” value [1] was 35.75%, the “DNA content (%) S” value [1] was 53.11% and the IC50 [2] was 750 ± 60 nM. The “SI (selectivity index), HCT116” value [2] was 9.36, the “EGFR HCT116 % Inhibition” value [3] was 68.2% and the “EGFR HCT116 RQ (relative quantification)” value [3] was 1.283. For the same compound, the IC50 [4] was 7020 ± 450 nM, the IC50 [5] was 193 nM and the “SI = CC50/IC50” value [6] was 34.0. The IC50 [7] was 1600 nM, the “SI = IC50(COX-1)/IC50(COX-2)” value [7] was 0.121 and the IC50 [8] was 431 ± 30 nM. The “SI (selectivity index), A431” value [8] was 16.3, the “Apoptosis (%) Early” value [9] was 1.72% and the “Apoptosis (%) Total” value [9] was 35.75%. The “Necrosis (%)” value [9] was 9.44%, the “VEGFR2 HCT116 % Inhibition” value [10] was 69.6% and the “VEGFR2 HCT116 RQ (relative quantification)” value [10] was 1.16. The IC50 [11] was 2650 ± 220 nM, the “SI (selectivity index), MCF7” value [11] was 2.65 and the “EGFR MCF7 % Inhibition” value [12] was 69.2%. The “EGFR MCF7 RQ (relative quantification)” value [12] was 1.3, the “VEGFR2 MCF7 % Inhibition” value [13] was 63.0% and the “VEGFR2 MCF7 RQ (relative quantification)” value [13] was 1.38.

For `COc1cc(/C=C/C(=O)CC(=O)/C=C/c2ccc(O)c(OC)c2)ccc1O` [Cur, curcumin], the IC50 [14] is listed as 16000 ± 2040 nM and the IC50 [15] is listed as 38200 ± 2360 nM.
